In patent publication US20240139135A1, “[…] TREATMENT OF OPIOID USE DISORDER” (THE TRUSTEES OF INDIANA UNIVERSITY, priority 2019, published 2024):
Entries after “also recorded” stand apart in the source; their conditions may differ.

Legend:
[1] = tested on: patients with opioid use disorder (DSM-5 moderate to severe) using opioids for at least three months; test: Medical chart review of a fifteen-patient outpatient neurology cohort whose opioids were replaced with low-dose Lyrica (pregabalin); type: in vivo, human
Method: Summary of Experimental Results: Over the span of several years, the present inventor, who is a practicing neurologist, tested various different drugs at varying doses in an attempt to assist patients in their outpatient general neurological practice with cessation of opioid use. Through extensive experimentation, the physician discovered that 25 mg of Lyrica (pregabalin) T.I.D. successfully replaced opioids in a few of their patients, they subsequently expanded their research to other patients.
The charts for the fifteen (15) patients of this cohort were evaluated to ascertain the date that pregabalin was initiated, and the starting dose; the pregabalin dose as of the last available medical record; concomitant pain/CNS medications and concomitant non-pain/CNS medications; records of opioid use, type of opioid and dose (when available); and the temporal relationship between starting pregabalin and no longer requiring opioids. The medications in patient charts were compared with the accompanying medication list for each patient. As these were medical charts, the review was conducted to the extent that information was available.
Diagnosis of opioid use disorder: As a part of the medical chart review, the investigating physician assessed the fifteen (15) patients against the DSM-5 diagnostic criteria for OUD, defined “ . . . as a problematic pattern of opioid use leading to clinically significant impairment or distress, as manifested by at least two (2) pre-defined symptoms.” These criteria include eleven symptoms or behaviors occurring within a 12-month period. A diagnosis of mild OUD requires the presence of 2-3 symptoms, moderate 4-5 symptoms, and severe 6 or more symptoms. Of the fifteen (15) patients, seven (7) had scores in the moderate range and eight (8) had scores in the severe range.

neuropathic pain = conditions: doses of up to 150 mg a day; cited from earlier work

For `CC(C)C[C@H](CN)CC(=O)O` [pregabalin, (S)-(+)-3-aminomethyl-5-methyl-hexanoic acid], the “patients for whom opioids were successfully replaced” value ([1]; 25 mg Lyrica (pregabalin) T.I.D., patients had been using opioids for at least three months, cohort of 15) was 15 patients, the cravings for opioids ([1]; each of the fifteen patients, low-dose pregabalin) was “complete cessation of cravings for opioids” and the “side effects or withdrawal symptoms” value ([1]; fifteen patients, opioids replaced with low-dose pregabalin) was “no reported side effects or withdrawal symptoms; also recorded: none of the fifteen (15) patients experienced side effects or withdrawal symptoms”. For the same compound, the “patients who decreased their opioids temporally related to (after) starting pregabalin” value ([1]; of fifteen patients) was 2 patients, the “patients who stopped or decreased their opioids temporally related to (after) starting pregabalin” value ([1]; of fifteen patients, chart review) was at least 7 patients and the “patients who stopped their opioids temporally related to (after) starting pregabalin” value ([1]; of fifteen patients, one continued tramadol 50 mg Q.I.D. prn) was 5 patients. For the same compound, the “patients who elected to return to opioids for other reasons” value ([1]; of the fifteen-patient cohort, also effectively cured of cravings) was 2 patients, the “remaining patients, none of whom returned to opioids within the observation period” value ([1]; of the fifteen-patient cohort, opioids replaced with low doses of Lyrica (pregabalin)) was 13 patients and the “patients started on pregabalin who stopped or decreased their use of opioids (total)” value ([1]; of the patient charts reviewed (fifteen)) was at least 11 patients. The “patients who stopped their opioids while on pregabalin, relative timing not definitively established” value ([1]; of the remaining eight patients) was 4 patients and the “efficacy for the indicated treatment of neuropathic pain” value (neuropathic pain) was “consistently ineffective”.
